Test systems include PC-3 prostate; MDA-MB-231 breast; DMS 273 small cell lung; DMS 114 small cell lung; LXFL 529 NSCLC; XF 498 CNS; HOP-18 NSCLC; MDA-N.
Common to all, as to test: NCI tumour cell line growth inhibition, 48 h

Our source for the GI50 and TGI values is PubChem BioAssay (NCI).

Each structure is given as a SMILES string.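 Tested at 5 concentrations; 48 h exposure; 96-well plates; endpoints linearly interpolated, else capped at highest concentration. Abbreviation: GI50, concentration required for 50% inhibition of growth. TGI is the concentration that stops growth completely.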

With `Brc1ccc2c(c1)-c1ccccc1C1=NCCN12`, in the assay on PC-3 prostate, the GI50 is 0.763 µM and the TGI turned out to be 11 µM. In the assay on MDA-MB-231 breast, the GI50 is 1.73 µM and the TGI is 4.29 µM.

In the case of `Cc1cccc(Cc2cnc(NC(=O)CCCOc3ccc(Cl)cc3)s2)c1`, the GI50 with PC-3 prostate is 4.58 µM; in the assay on MDA-MB-231 breast, 21.2 µM. Besides, the TGI in the assay with PC-3 prostate and in the assay on MDA-MB-231 breast was over 100 µM throughout.

Take `COc1cccc2c(Nc3ccc(C(=O)NCCN4CCNCC4)cc3)cc(-c3ccccc3)nc12`: in the assay on PC-3 prostate, the GI50 is 25.8 µM and the TGI was over 100 µM. Besides, in the assay with MDA-MB-231 breast, the GI50 was 19.9 µM and the TGI was over 100 µM.

With `CCNC(=O)O/N=C1/C=C2CC[C@@H]3C(CC[C@@]4(C)C3CC[C@@H]4OC(=O)NCC)[C@@]2(C)CC1` (some centres not stated), the values for the TGI in the assay on DMS 273 small cell lung, with DMS 114 small cell lung and with LXFL 529 NSCLC were 5.5 µM, 3.29 µM and 3.4 µM, respectively.

Turning to `O=C(/C=C/N1CCN(c2cccc(Cl)c2)CC1)c1ccc(Cl)cc1`, in the assay with PC-3 prostate, the GI50 is 25.3 µM and the TGI is over 100 µM. In addition, in the assay with MDA-MB-231 breast, the GI50 is 30 µM and the TGI is over 100 µM.

On to `Cc1[nH]n(C(=O)c2ccc(Cl)cc2)c(=O)c1/C=C1\C(O)=CC(=O)c2ccccc21`, for which the TGI in the assay on DMS 114 small cell lung, in the assay with LXFL 529 NSCLC and in the assay with XF 498 CNS was over 100 µM throughout.

As for `Cc1nc(-c2cccnc2)sc1C(=O)/C=C/c1ccc(Cl)cc1Cl`, the TGI in the assay with DMS 273 small cell lung, in the assay with HOP-18 NSCLC and in the assay on DMS 114 small cell lung was over 100 µM throughout.

On to `O=C(Nc1cccc(C(F)(F)F)c1)Nc1cc(S(=O)(=O)NC2CC2)ccc1-c1ccsc1`, for which, in the assay with PC-3 prostate, the GI50 was 3.4 µM and the TGI came to 18.6 µM. In addition, in the assay on MDA-MB-231 breast, the GI50 was 3.43 µM and the TGI came out at 14.8 µM.

Regarding `Oc1ccc(/C=N/Nc2nnc(N/N=C/c3ccc(O)cc3O)c3ccccc23)c(O)c1`, the TGI is 0.93 µM with MDA-N, 8.82 µM with PC-3 prostate and over 46.2 µM in the assay on MDA-MB-231 breast. Further, the GI50 in the assay on MDA-MB-231 breast is 1.35 µM.

For `CCCCc1c2c(nc3c1CC/C(=C\c1ccccc1)C3=O)CCCC2`, the TGI stood at 8.26 µM in the assay with DMS 273 small cell lung, 27.5 µM in the assay with DMS 114 small cell lung and 4.16 µM in the assay on LXFL 529 NSCLC.

For `COc1ccc(S(=O)(=O)NCCCNc2nccc(-c3c(-c4ccc(F)cc4)nc4sccn34)n2)cc1`, in the assay on PC-3 prostate, the GI50 was 8.74 µM and the TGI was over 100 µM. Besides, in the assay with MDA-MB-231 breast, the GI50 was 7.27 µM and the TGI is over 100 µM.

Turning to `CC(=O)OCC1OC(OC(C)=O)C(NC#N)C(OC(C)=O)C1OC(C)=O` (configuration not stated), the TGI with DMS 273 small cell lung, with HOP-18 NSCLC, in the assay on DMS 114 small cell lung and in the assay on LXFL 529 NSCLC was over 100 µM each time.

As for `OCCn1c(-c2ccncc2)c(-c2ccc(F)cc2)c2ncccc21`, in the assay with PC-3 prostate, the GI50 was over 25 µM and the TGI was over 25 µM. For the same compound, in the assay on MDA-MB-231 breast, the GI50 was over 25 µM and the TGI is over 25 µM.

With `O=C(Nc1cccc(C(F)(F)F)c1)Nc1ccc(OCc2nnc(-c3ccccc3)o2)c(F)c1`, the GI50 in the assay with PC-3 prostate was 2.01 µM; with MDA-MB-231 breast it was 3.3 µM. The TGI came to 13.7 µM with PC-3 prostate and 22.3 µM in the assay on MDA-MB-231 breast.

As to `CC(C)C12CCC3(CCC4C(C)(C(=O)O)CCCC4(C)C3C1)C(CN)C2` (configuration not stated), the TGI is 84 µM in the assay on MDA-N, over 100 µM in the assay with PC-3 prostate and over 100 µM with MDA-MB-231 breast.

For the compound `Cc1cc(C2(c3cc(C)c(O)c4ncccc34)OC(=O)c3ccccc32)c2cccnc2c1O`, the TGI was over 100 µM in the assay on MDA-N, over 100 µM with PC-3 prostate and 22.7 µM in the assay on MDA-MB-231 breast. For the same compound, the GI50 with PC-3 prostate was 0.0957 µM; in the assay with MDA-MB-231 breast, 0.0215 µM.

Consider `CC(=O)Nc1ccc(C(=O)COc2cccc(/C=C3\CCc4ccccc4C3=O)c2)cc1`, for which, in the assay on PC-3 prostate, the GI50 is 10.1 µM and the TGI was found to be 47.2 µM. In addition, in the assay with MDA-MB-231 breast, the GI50 was 18.7 µM and the TGI was determined as 85.9 µM.

`COc1ccc(Cl)cc1Nc1nc(C(F)(F)F)ccc1C(=O)N/N=C/c1ccc(Cl)cc1`: the values for the GI50 in the assay with PC-3 prostate and in the assay with MDA-MB-231 breast were over 100 µM and 5.44 µM, respectively. For the same compound, the TGI with PC-3 prostate and in the assay on MDA-MB-231 breast was over 100 µM each time.

Turning to `Clc1ccc(N=CNc2ccc(-c3nc4ccccc4[nH]3)cc2)cc1`, in the assay with PC-3 prostate, the GI50 is over 100 µM and the TGI is over 100 µM. In the assay with MDA-MB-231 breast, the GI50 was over 100 µM and the TGI is over 100 µM.

In the case of `O=C(c1ccccc1)c1ccc(N2C(=O)C3C4c5ccccc5C(/C=C/C(=O)c5ccccn5)(c5ccccc54)C3C2=O)cc1` (configuration not stated), the GI50 in the assay on PC-3 prostate is 3.74 µM; in the assay on MDA-MB-231 breast, 2.34 µM. Besides, the TGI in the assay with PC-3 prostate was over 100 µM; in the assay on MDA-MB-231 breast, 6.4 µM.

Take `COC(=O)C1=C(C)N(NC(=O)Nc2ccccc2)C2(N)N(NC(=O)Nc3ccccc3)C(C)=C(C(=O)OC)C12C(=O)OC` (configuration not stated): the TGI with DMS 273 small cell lung, with HOP-18 NSCLC, with DMS 114 small cell lung and with LXFL 529 NSCLC was over 100 µM each time.

Consider `Cn1ncc2c(c1=O)Nc1ccccc1S2(=O)=O`, for which the TGI with DMS 273 small cell lung is over 100 µM; in the assay on HOP-18 NSCLC it was over 100 µM; in the assay with DMS 114 small cell lung, 40.9 µM; with LXFL 529 NSCLC, over 100 µM.

Take `O=[N+]([O-])c1cccc(C2=NOC3CCCC23)c1` (configuration not stated): the TGI with DMS 273 small cell lung, in the assay on HOP-18 NSCLC, in the assay with DMS 114 small cell lung and with LXFL 529 NSCLC was over 100 µM in each case.

Regarding `CN1OC(CO)CC12C1CC3CC(C1)CC2C3` (configuration not stated), the TGI in the assay on DMS 273 small cell lung, in the assay on HOP-18 NSCLC, in the assay on DMS 114 small cell lung and in the assay with LXFL 529 NSCLC was over 100 µM in each case.

As for `Nc1ccc(N)c2c1C(=O)c1cccc([N+](=O)[O-])c1C2=O`, in the assay with PC-3 prostate, the GI50 was 15.6 µM and the TGI was over 100 µM. Also, in the assay with MDA-MB-231 breast, the GI50 was 27 µM and the TGI was over 100 µM.

Regarding `COC(=O)CCSC(=O)Nc1ccccc1Cl`, the TGI in the assay with DMS 273 small cell lung, in the assay with DMS 114 small cell lung and in the assay on LXFL 529 NSCLC was over 100 µM each time.

Regarding `CC(C)c1nc(Cl)c(Cl)c(Cl)n1`, the TGI in the assay with MDA-N came to 19 µM; in the assay with PC-3 prostate it was 17.7 µM; in the assay on MDA-MB-231 breast, 23.2 µM.
